Measured values reported in PMC10689823, “Discovery of a Drug-like, Natural Product-Inspired DCAF11 Ligand Chemotype” (Nature Communications, 2023).
Where “and” joins values, the source holds several entries; their conditions need not be identical. Identical values can stand only once.

Tested on: BRD2
Experiment: In-Cell Western for BRD2 levels in Hep G2 cells
Type: cell-based
Conditions: then 9 (10 μM, 4 h); for BRD2/Vinculin intensity (relative to control group): Hep G2 cells, single repeats, Fig. 4h; for Value (Mean ± SD): Relative BRD2 levels remaining in Hep G2 cells after treatment with compounds followed by treatment with 9, with DMSO control for normalization: qualitative ICW assay, Supplementary Table 1
Protocol: Hep G2 cells were seeded in 96-well plates and incubated for 24 h. Compounds were added for the indicated time at the indicated concentration. Cells were then washed once with PBS and fixed with 4% paraformaldehyde for 30 min at room temperature. The fixed cells were permeabilized with 0.5 % Triton-X100 for 15 min followed by block with Intercept® Blocking Buffer (LI-COR Biosciences, 927-70001) for 1 h at room temperature. Primary antibodies for BRD2 (1:800) and Vinculin (1:2000) were diluted with LI-COR buffer and incubated with the cells at 4 °C overnight. Cells were washed with PBS-T, and the secondary antibodies conjugated to IRDye (1:1000, LI-COR Biosciences) were added to the cells for 1 h at room temperature. After washing the cells, the signal was recorded with the Odyssey® CLx Infrared Imaging System (LI-COR Biosciences) and the protein levels were analyzed by Image Studio (LI-COR Biosciences). BRD2 protein levels were normalized to the levels of reference protein vinculin.

[1] = pretreated with compound at 30 μM 1 h

## CC(=O)N1C(=O)C(=Cc2cc(Br)c(OCCO)c(Br)c2)c2cc(Br)ccc21 (mixture of isomers) [Compound 40]
[1]
  BRD2/Vinculin intensity (relative to control group): 50.1992 and 43.5119 and 52.0339 and 53.5687
Pretreated at 30 μM 1 h
  Value (Mean ± SD): Relative BRD2 levels remaining in Hep G2 cells after treatment with compounds followed by treatment with 9, with DMSO control for normalization: 49.83 ± 3.84

## CN1C(=O)C(=Cc2cc(Br)c(OCCO)c(Br)c2)c2cc(Br)ccc21 (mixture of isomers) [Compound 45]
[1]
  BRD2/Vinculin intensity (relative to control group): 68.8291 and 61.2096 and 73.2245 and 67.5028
Pretreated at 30 μM 1 h
  Value (Mean ± SD): Relative BRD2 levels remaining in Hep G2 cells after treatment with compounds followed by treatment with 9, with DMSO control for normalization: 67.69 ± 4.30

## O=C1Nc2cc(Cl)ccc2C1=Cc1c[nH]c2ccc(Br)cc12 [Compound 19]
[1]
  BRD2/Vinculin intensity (relative to control group): 19.139 and 23.0411 and 26.0065 and 21.6242
Pretreated at 30 μM 1 h
  Value (Mean ± SD): Relative BRD2 levels remaining in Hep G2 cells after treatment with compounds followed by treatment with 9, with DMSO control for normalization: 22.45 ± 2.48

## Cc1cc(C=C2C(=O)Nc3cc(Cl)ccc32)c(C)n1-c1ccc(Cl)cc1 [Compound 20]
[1]
  BRD2/Vinculin intensity (relative to control group): 18.6668 and 28.7239 and 22.4508 and 22.3561
Pretreated at 30 μM 1 h
  Value (Mean ± SD): Relative BRD2 levels remaining in Hep G2 cells after treatment with compounds followed by treatment with 9, with DMSO control for normalization: 23.05 ± 3.61

## Cc1ccc(C=C2C(=O)Nc3ccc(Br)cc32)o1 [Compound 21]
[1]
  BRD2/Vinculin intensity (relative to control group): 35.3621 and 27.9558 and 29.5667 and 18.9355
Pretreated at 30 μM 1 h
  Value (Mean ± SD): Relative BRD2 levels remaining in Hep G2 cells after treatment with compounds followed by treatment with 9, with DMSO control for normalization: 27.96 ± 5.89

## CCn1cc(C=C2C(=O)N(C)c3ccccc32)c2ccccc21 [Compound 22]
[1]
  BRD2/Vinculin intensity (relative to control group): 27.5998 and 30.1143 and 27.5093 and 28.0162
Pretreated at 30 μM 1 h
  Value (Mean ± SD): Relative BRD2 levels remaining in Hep G2 cells after treatment with compounds followed by treatment with 9, with DMSO control for normalization: 28.31 ± 1.06

## Cc1cccc(-n2c(C=C3C(=O)Nc4ccc(Br)cc43)nc3ccccc3c2=O)c1 [Compound 23]
[1]
  BRD2/Vinculin intensity (relative to control group): 33.3864 and 29.794 and 26.5816 and 25.9636
Pretreated at 30 μM 1 h
  Value (Mean ± SD): Relative BRD2 levels remaining in Hep G2 cells after treatment with compounds followed by treatment with 9, with DMSO control for normalization: 28.93 ± 2.95

## O=C1Nc2ccc(Br)cc2C1=Cc1ccc(-c2ccc(Cl)cc2)o1 [Compound 24]
[1]
  BRD2/Vinculin intensity (relative to control group): 33.2997 and 37.4269 and 27.7324 and 30.7224
Pretreated at 30 μM 1 h
  Value (Mean ± SD): Relative BRD2 levels remaining in Hep G2 cells after treatment with compounds followed by treatment with 9, with DMSO control for normalization: 32.30 ± 3.56

## CCOC(=O)c1ccc(-c2ccc(C=C3C(=O)Nc4ccc(Br)cc43)o2)cc1 [Compound 25]
[1]
  BRD2/Vinculin intensity (relative to control group): 36.1651 and 31.9974 and 32.0528 and 31.1097
Pretreated at 30 μM 1 h
  Value (Mean ± SD): Relative BRD2 levels remaining in Hep G2 cells after treatment with compounds followed by treatment with 9, with DMSO control for normalization: 32.83 ± 1.96

## O=C1Nc2ccc(Br)cc2C1=Cc1ccc2ccccc2n1 [Compound 26]
[1]
  BRD2/Vinculin intensity (relative to control group): 39.8782 and 39.8556 and 38.9972 and 37.1452
Pretreated at 30 μM 1 h
  Value (Mean ± SD): Relative BRD2 levels remaining in Hep G2 cells after treatment with compounds followed by treatment with 9, with DMSO control for normalization: 38.97 ± 1.11

## COc1cccc(C=C2C(=O)Nc3ccc(Br)cc32)c1OCc1ccccc1 [Compound 27]
[1]
  BRD2/Vinculin intensity (relative to control group): 30.4848 and 27.4717 and 21.0618 and 23.6161
Pretreated at 30 μM 1 h
  Value (Mean ± SD): Relative BRD2 levels remaining in Hep G2 cells after treatment with compounds followed by treatment with 9, with DMSO control for normalization: 25.66 ± 3.60

## O=C1Nc2ccccc2C1=CC=Cc1ccccc1 [Compound 28]
[1]
  BRD2/Vinculin intensity (relative to control group): 22.3518 and 31.2898 and 26.3948 and 28.7193
Pretreated at 30 μM 1 h
  Value (Mean ± SD): Relative BRD2 levels remaining in Hep G2 cells after treatment with compounds followed by treatment with 9, with DMSO control for normalization: 27.19 ± 3.29

## COc1cc2c(cc1OC)C(=CC=Cc1ccc(N(C)C)cc1)C(=O)N2 [Compound 29]
[1]
  BRD2/Vinculin intensity (relative to control group): 35.199 and 32.8298 and 30.2931 and 29.1162
Pretreated at 30 μM 1 h
  Value (Mean ± SD): Relative BRD2 levels remaining in Hep G2 cells after treatment with compounds followed by treatment with 9, with DMSO control for normalization: 31.86 ± 2.35

## CCOc1ccc(Br)c(C=C2C(=O)Nc3ccc(Br)cc32)c1 [Compound 30]
[1]
  BRD2/Vinculin intensity (relative to control group): 30.1563 and 42.48 and 35.4039 and 36.6749
Pretreated at 30 μM 1 h
  Value (Mean ± SD): Relative BRD2 levels remaining in Hep G2 cells after treatment with compounds followed by treatment with 9, with DMSO control for normalization: 36.18 ± 4.38

## COc1cc(C)c(C=C2C(=O)Nc3ccccc32)cc1C [Compound 31]
[1]
  BRD2/Vinculin intensity (relative to control group): 36.8879 and 36.7406 and 37.2822 and 33.8929
Pretreated at 30 μM 1 h
  Value (Mean ± SD): Relative BRD2 levels remaining in Hep G2 cells after treatment with compounds followed by treatment with 9, with DMSO control for normalization: 36.20 ± 1.35

## COc1cc(OC)c(OC)cc1C=C1C(=O)Nc2ccc(Br)cc21 [Compound 32]
[1]
  BRD2/Vinculin intensity (relative to control group): 37.3799 and 42.1343 and 35.9887 and 37.382
Pretreated at 30 μM 1 h
  Value (Mean ± SD): Relative BRD2 levels remaining in Hep G2 cells after treatment with compounds followed by treatment with 9, with DMSO control for normalization: 38.22 ± 2.33

## O=C1Nc2cc(Cl)c(Cl)cc2C1=Cc1cc(Br)c(OCCO)c(Br)c1 [Compound 33]
[1]
  BRD2/Vinculin intensity (relative to control group): 39.4036 and 41.0431 and 32.5156 and 41.2316
Pretreated at 30 μM 1 h
  Value (Mean ± SD): Relative BRD2 levels remaining in Hep G2 cells after treatment with compounds followed by treatment with 9, with DMSO control for normalization: 38.55 ± 3.55

## CCOc1cccc(C=C2C(=O)Nc3ccc(Br)cc32)c1O [Compound 34]
[1]
  BRD2/Vinculin intensity (relative to control group): 32.5833 and 35.4683 and 36.0421 and 51.0354
Pretreated at 30 μM 1 h
  Value (Mean ± SD): Relative BRD2 levels remaining in Hep G2 cells after treatment with compounds followed by treatment with 9, with DMSO control for normalization: 38.78 ± 7.19

## COc1cc2c(cc1OC)C(=Cc1ccc(OC)c(OC)c1OC)C(=O)N2 [Compound 35]
Pretreated at 30 μM 1 h
  Value (Mean ± SD): Relative BRD2 levels remaining in Hep G2 cells after treatment with compounds followed by treatment with 9, with DMSO control for normalization: 43.80 ± 10.34

## COc1cc(C=C2C(=O)Nc3ccc(Br)cc32)ccc1O [Compound 36]
[1]
  BRD2/Vinculin intensity (relative to control group): 48.1488 and 40.4194 and 43.1435 and 45.121
Pretreated at 30 μM 1 h
  Value (Mean ± SD): Relative BRD2 levels remaining in Hep G2 cells after treatment with compounds followed by treatment with 9, with DMSO control for normalization: 44.21 ± 2.82

## COc1cc(C=C2C(=O)N(C(C)=O)c3ccc(Br)cc32)c(Br)cc1OC(C)=O [Compound 37]
[1]
  BRD2/Vinculin intensity (relative to control group): 55.6586 and 50.2433 and 39.6211 and 39.558
Pretreated at 30 μM 1 h
  Value (Mean ± SD): Relative BRD2 levels remaining in Hep G2 cells after treatment with compounds followed by treatment with 9, with DMSO control for normalization: 46.27 ± 6.95

## COc1cc(C=C2C(=O)Nc3ccc(Br)cc32)cc(OC)c1OC [Compound 38]
[1]
  BRD2/Vinculin intensity (relative to control group): 42.8563 and 47.1155 and 46.6713 and 48.8801
Pretreated at 30 μM 1 h
  Value (Mean ± SD): Relative BRD2 levels remaining in Hep G2 cells after treatment with compounds followed by treatment with 9, with DMSO control for normalization: 46.38 ± 2.20

## CCOc1c(O)ccc(C=C2C(=O)Nc3ccc(Br)cc32)c1[N+](=O)[O-] [Compound 39]
[1]
  BRD2/Vinculin intensity (relative to control group): 52.2917 and 48.4313 and 42.763 and 42.1712
Pretreated at 30 μM 1 h
  Value (Mean ± SD): Relative BRD2 levels remaining in Hep G2 cells after treatment with compounds followed by treatment with 9, with DMSO control for normalization: 46.41 ± 4.18

## O=C1Nc2ccc([N+](=O)[O-])cc2C1=Cc1cc(Br)c(OCCO)c(Br)c1 [Compound 41]
[1]
  BRD2/Vinculin intensity (relative to control group): 35.3006 and 58.464 and 60.939
Pretreated at 30 μM 1 h
  Value (Mean ± SD): Relative BRD2 levels remaining in Hep G2 cells after treatment with compounds followed by treatment with 9, with DMSO control for normalization: 51.57 ± 11.55

## O=C1Nc2cccc(Br)c2C1=Cc1cc(Br)c(OCCO)c(Br)c1 [Compound 43]
[1]
  BRD2/Vinculin intensity (relative to control group): 65.9619 and 44.3044 and 51.8651 and 61.4106
Pretreated at 30 μM 1 h
  Value (Mean ± SD): Relative BRD2 levels remaining in Hep G2 cells after treatment with compounds followed by treatment with 9, with DMSO control for normalization: 55.89 ± 8.40

## O=C1Nc2c(Br)cccc2C1=Cc1cc(Br)c(OCCO)c(Br)c1 [Compound 44]
[1]
  BRD2/Vinculin intensity (relative to control group): 58.0241 and 42.9089 and 68.5528 and 58.6725
Pretreated at 30 μM 1 h
  Value (Mean ± SD): Relative BRD2 levels remaining in Hep G2 cells after treatment with compounds followed by treatment with 9, with DMSO control for normalization: 57.04 ± 9.16

## O=C1Nc2cc(Br)ccc2C1=Cc1cc(Br)c(OCCO)c(Br)c1 [Compound 46]
Pretreated at 30 μM 1 h
  Value (Mean ± SD): Relative BRD2 levels remaining in Hep G2 cells after treatment with compounds followed by treatment with 9, with DMSO control for normalization: 70.23 ± 9.63

## O=C1C(=Cc2cc(Br)c(OCCO)c(Br)c2)c2ccccc2N1c1ccccc1 [Compound 47]
Pretreated at 30 μM 1 h
  Value (Mean ± SD): Relative BRD2 levels remaining in Hep G2 cells after treatment with compounds followed by treatment with 9, with DMSO control for normalization: 72.76 ± 4.44

## NS(=O)(=O)OC[C@@H]1C[C@@H](n2ccc3c(N[C@H]4CCc5ccccc54)ncnc32)C[C@@H]1O [MLN4924, reference compound]
Pretreated with MLN4924 at 1 μM 1 h
  BRD2/Vinculin intensity (relative to control group): 108.675 and 116.153 and 114.111
MLN4924 at 1 μM 1 h
  Value (Mean ± SD): Relative BRD2 levels remaining in Hep G2 cells after treatment with compounds followed by treatment with 9, with DMSO control for normalization: 112.98 ± 3.16
